Experimental data reported in PubChem BioAssay (NCI).
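How tested: cells in 96-well plates exposed to compound for 48 hours at five concentrations. TGI: total growth inhibition.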

Tests used:
Test in all cases: DTP human tumour cell line panel, 48 h
[1] = test system: TK-10 renal
[2] = test system: SF-268 CNS
[3] = test system: HT29 colon
[4] = test system: HCT-15 colon
[5] = test system: NCI-H23 lung
[6] = test system: NCI-H460 lung
[7] = test system: OVCAR-5 ovarian
[8] = test system: SN12C renal
[9] = test system: SW-620 colon
[10] = test system: MDA-MB-435
[11] = test system: HOP-92 NSCLC
[12] = test system: NCI-H226 lung
[13] = test system: PC-3 prostate
[14] = test system: SK-MEL-28 melanoma
[15] = test system: MCF7 breast
[16] = test system: SR leukemia
[17] = test system: UO-31 renal
[18] = test system: T-47D breast
[19] = test system: KM12 colon
[20] = test system: UACC-62 melanoma
[21] = test system: CAKI-1 renal
[22] = test system: HOP-62 NSCLC
[23] = test system: HL-60(TB) leukemia
[24] = test system: BT-549 breast
[25] = test system: SK-OV-3 ovarian
[26] = test system: MDA-N
[27] = test system: HCT-116 colon
[28] = test system: A549 NSCLC
[29] = test system: M14 melanoma
[30] = test system: K-562 leukemia
[31] = test system: UACC-257 melanoma
[32] = test system: SF-539 CNS
[33] = test system: SK-MEL-2 melanoma
[34] = test system: OVCAR-8 ovarian
[35] = test system: A498 renal
[36] = test system: U251 CNS
[37] = test system: HS 578T breast
[38] = test system: SNB-19 CNS
[39] = test system: EKVX NSCLC
[40] = test system: NCI-H522 lung
[41] = test system: NCI/ADR-RES ovarian
[42] = test system: ACHN renal
[43] = test system: MDA-MB-231 breast
[44] = test system: LOX IMVI melanoma
[45] = test system: SF-295 CNS
[46] = test system: HCC-2998 colon
[47] = test system: 786-0 renal
[48] = test system: RPMI-8226 leukemia
[49] = test system: COLO 205 colon
[50] = test system: RXF 393 renal
[51] = test system: MOLT-4 leukemia
[52] = test system: OVCAR-4 ovarian
[53] = test system: SNB-75 CNS
[54] = test system: SK-MEL-5 melanoma
[55] = test system: CCRF-CEM leukemia
[56] = test system: MALME-3M melanoma
[57] = test system: IGROV1 ovarian
[58] = test system: OVCAR-3 ovarian
[59] = test system: DU-145 prostate
[60] = test system: DMS 114 small cell lung
[61] = test system: M19-MEL melanoma
[62] = test system: XF 498 CNS
[63] = test system: DLD-1 colon
[64] = test system: LXFL 529 NSCLC

SMILES: O=C1c2ccccc2CC12Cc1ccc3c(c1C2)CCC3 (stereo not given)
- TGI [1]: 26.7 µM
- TGI [2]: > 100 µM
- TGI [3]: 29.2 µM
- TGI [4]: 31.6 µM
- TGI [5]: > 100 µM
- TGI [6]: 79.2 µM
- TGI [7]: 42.2 µM
- TGI [8]: > 100 µM
- TGI [9]: > 100 µM
- TGI [10]: 33.7 µM
- TGI [11]: 34.9 µM
- TGI [12]: 64.7 µM
- TGI [13]: > 100 µM
- TGI [14]: > 100 µM
- TGI [15]: 39.6 µM
- TGI [16]: 44.1 µM
- TGI [17]: > 100 µM
- TGI [18]: > 100 µM
- TGI [19]: 73.9 µM
- TGI [20]: 60.5 µM
- TGI [21]: > 100 µM
- TGI [22]: 69.5 µM
- TGI [23]: 42.1 µM
- TGI [24]: > 100 µM
- TGI [25]: > 100 µM
- TGI [26]: 44.4 µM
- TGI [27]: 40.1 µM
- TGI [28]: 64.2 µM
- TGI [29]: 49.1 µM
- TGI [30]: > 100 µM
- TGI [31]: 30.2 µM
- TGI [32]: 90.2 µM
- TGI [33]: 30.2 µM
- TGI [34]: > 100 µM
- TGI [35]: > 100 µM
- TGI [36]: 38 µM
- TGI [37]: 83.4 µM
- TGI [38]: > 100 µM
- TGI [39]: 47.7 µM
- TGI [40]: 25.2 µM
- TGI [41]: 28.4 µM
- TGI [42]: 61 µM
- TGI [43]: 47.1 µM
- TGI [44]: 24.8 µM
- TGI [45]: 76.5 µM
- TGI [46]: 54.7 µM
- TGI [47]: 51.7 µM
- TGI [48]: 59.6 µM
- TGI [49]: 59.3 µM
- TGI [50]: 38.7 µM
- TGI [51]: > 100 µM
- TGI [52]: > 100 µM
- TGI [53]: 97.9 µM
- TGI [54]: 28.8 µM
- TGI [55]: 49.3 µM
- TGI [56]: 30.3 µM
- TGI [57]: > 100 µM
- TGI [58]: 41.7 µM
- TGI [59]: > 100 µM

SMILES: COS(=O)c1cc(Cl)cc(Cl)c1O (stereo not given)
- TGI [1]: > 100 µM
- TGI [2]: > 100 µM
- TGI [3]: > 100 µM
- TGI [5]: > 100 µM
- TGI [6]: > 100 µM
- TGI [7]: > 100 µM
- TGI [8]: > 100 µM
- TGI [60]: > 100 µM
- TGI [14]: > 100 µM
- TGI [16]: > 100 µM
- TGI [17]: > 100 µM
- TGI [19]: > 100 µM
- TGI [20]: > 100 µM
- TGI [22]: > 100 µM
- TGI [23]: > 100 µM
- TGI [25]: > 100 µM
- TGI [27]: > 100 µM
- TGI [29]: > 100 µM
- TGI [30]: > 100 µM
- TGI [31]: > 100 µM
- TGI [32]: > 100 µM
- TGI [33]: > 100 µM
- TGI [35]: > 100 µM
- TGI [36]: > 100 µM
- TGI [61]: > 100 µM
- TGI [38]: > 100 µM
- TGI [39]: > 100 µM
- TGI [40]: 36.3 µM
- TGI [62]: > 100 µM
- TGI [42]: > 100 µM
- TGI [63]: > 100 µM
- TGI [44]: > 100 µM
- TGI [46]: > 100 µM
- TGI [50]: > 100 µM
- TGI [51]: > 100 µM
- TGI [52]: > 100 µM
- TGI [53]: > 100 µM
- TGI [64]: > 100 µM
- TGI [55]: > 100 µM
- TGI [56]: > 100 µM
- TGI [58]: > 100 µM
